Patent publication US20180244653A1, “SELECTIVE ALPHA-7 NICOTINIC RECEPTOR AGONISTS AND METHODS FOR MAKING AND USING THEM” (THE REGENTS OF THE UNIVERSITY OF CALIFORNIA, priority 2015, published 2018)
Entries after “also recorded” stand apart in the source; their conditions may differ. Where two headings read alike, the source gives them in different places.

What was measured:
[1] = tested on: physiologically induced amnesia mice; assay: ORT with 24 h time delay (natural memory loss); type: in vivo; conditions: 24 h delay; i.p.
Method: Both compounds were further evaluated on a physiologic amnesic model by using ORT with 24 h time delay to induce natural memory loss in mice. The appropriate time delay causing amnesia was initially selected by varying delay times (24, 48, and 72 h) between sample and test phase that have identical and different objects, respectively. […] Therefore, 24 h was used as the time delay between sample and test phase.
FIG. 27 illustrates exploration time to familiar (F) and novel (N) objects in test phase of ORT following a time delay. Each mouse was allowed to explore an open field apparatus for 5 min in a habituation phase one day before a sample phase. In the test day, vehicle (SH) and test compounds IND8, QND8 and PNU were injected 1 h before measurement of exploration time. Each mouse was allowed to explore 2 identical objects in the sample phase for 5 min. On the next day (24 h), one of the objects was changed to a new one and the mouse was allowed to explore these objects for 5 min. The exploration time of these objects was recorded. Data are presented as means±SE, n=6-8 mice/group. **p<0.01, ***p<0.001 vs exploration time of familiar object, paired student's t-test.
The DI was calculated and compared with the control group to evaluate IND8, QND8, and PNU-282987 enhancement of cognitive function. Data are shown in FIG. 28, which illustrates discrimination index (TN−TF/TN+TF) of each compound in the test phase of ORT with time delay protocol. There was a significant difference in DI (F6,43=6.097, p<0.001, n=6-8 mice/group). **p<0.01, ***p<0.001 vs vehicle group (SH), one-way ANOVA with Fisher's LSD post hoc comparison.
The apparatus used in this experiment was the same as ORT test. This experiment was divided into 2 parts directed to dose finding and establishing mechanism of action.
For dose finding protocol, the mice were randomly divided into different treatment groups, a control group receiving a vehicle and tested groups receiving PNU-282987 at 3, 10 mg/kg, and IND8, QND8 for 10, 25 μmol/kg, single dose. They were allowed to freely explore the open field apparatus for 5 min for habituation in a day before the experiment (day 1). On the test day (day 2), the test compound was injected 1 h before the sample phase. In this phase, mice were placed in the apparatus to explore two identical objects. On the next day (day 3), one object was changed to a new one and mice were allowed to explore these objects for 5 min in the test phase. For proving cognitive enhancement mediated through α7-nAChRs, the protocol was the same as mentioned above except MLA (3 mg/kg), selective α7-nAChR antagonist, was injected 5 min before test compounds in the sample phase (day 2) to block the cognitive enhancement effect from test compounds. The dose of test compounds is selected from the effective dose from the former experiment. The exploration time of each object was recorded if the nose of mouse came within 3 cm or touched the objects. The discrimination index (DI) was calculated by using (TN−TF)/(TN+TF); TN and TF represented exploration time of new and familiar objects, respectively.

α4β2-nAChRs [2] = target: T1, α4β2-nAChRs (Homo sapiens, UniProt P17787+P43681); assay: Intact cell competitive radioligand binding assay ([3H]-(±)-epibatidine, SPA), LGIC-CNiFERs; conditions: 10 μM, more than 50% radioligand displacement
T1 construct: expressed in transfected cells; host or cells: HEKtsA201 cells co-expressing TN-XXL

α4β2-nAChRs [3] = target: T1, α4β2-nAChRs; assay: FRET functional assay (agonist/antagonist) using LGIC-CNiFERs; type: cell-based; conditions: for Functional properties at α4β2-nAChRs (agonist / antagonist, type): functional screening and characterization
Method: (§1) Initially, the agonist properties of tested compounds were assessed directly. […] All α7-nAChR functional assays were performed in the presence of PNU-120596, an α7-nAChR positive allosteric modulator (PAM), to increase signal and delay the sensitization state of α7-nAChRs enabling the measurement of more prolonged FRET signals.^29 Compounds having agonist responses of >0.20 were determined for EC50, and compounds having inhibition fraction of >0.50 were determined for KA.^25 EC50>13.3 μM and KA>10 μM which are a screening concentration for agonist and antagonist, respectively were reported compounds not taken for further in the screening of receptor occupation and responses.
(§2) Agonist and antagonist elicited responses were characterized using the above CNiFER cell expressing Cys-loop ligand-gated ion channel (LGIC) receptors. […] A 96-well black, clear-bottom microplate (Greiner bio-one, Germany) was coated with poly-D-lysine (Sigma-Aldrich, St. Louis, Mo.) 50 μL/well for 30 min and washed out with Phosphate-Buffered Saline (PBS) (Corning, Cellgro, Manassas, Va.) before plating the cells. After plating and incubation at 37° C. for 1 day, the media was replaced with 100 μL of artificial cerebrospinal fluid (aCSF: 121 mM NaCl, 5 mM KCl, 26 mM NaHCO3, 1.2 mM NaH2PO4H2O, 10 mM glucose, 2.4 mM CaCl2, 1.3 mM MgSO4, 5 mM HEPES, pH 7.4) for 4032 and 5HT3A receptors, whereas 10 μM PNU-120596 (Tocris Bioscience, Bristol, UK) in aCSF with 30 min incubation at 37° C. was used for α7-nAChR. The tested compounds were prepared in aCSF for all receptors except α7-nAChR, where 10 μM PNU-120596, a positive allosteric modulator (PAM) was used. The prepared compounds were added in a separate 96-well polypropylene plate (Costar, Corning, N.Y.). Experiments were conducted at 37° C. using 436-nm excitation. Emitted light was collected at 485 nm and 528 nm. Basal fluorescence was recorded for 30 s, followed by addition of 50 μL of ligand (first addition). Measurements were made at 3.84 s intervals for 2 min to measure the agonistic effect. […] Agonist and antagonist properties were sequentially screened at the final concentration of 13.3 and 10 μM, respectively, which differed from the screening concentration from intact cell binding assay (10 μM).

α7-nAChRs = target: T2, α7-nAChRs (Homo sapiens, UniProt P36544); assay: as above; type: cell-based; conditions: for EC50: in presence of 10 μM PNU-120596, * partial agonist, >10 = did not pass initial screen, read-out: Agonist EC50 ± SD, α7
T2 construct: expressed in transfected cells; host or cells: HEKtsA201 cells co-expressing TN-XXL
Method: as §1, §2

5HT3A receptors [4] = target: T3, 5HT3A receptors (Mus musculus, UniProt P23979); assay: as above; type: cell-based; conditions: for EC50: read-out: Agonist EC50 ± SD, 5HT3A
T3 construct: expressed in transfected cells; host or cells: HEK293 cells co-expressing TN-XXL
T3 sequence (P23979 24-489): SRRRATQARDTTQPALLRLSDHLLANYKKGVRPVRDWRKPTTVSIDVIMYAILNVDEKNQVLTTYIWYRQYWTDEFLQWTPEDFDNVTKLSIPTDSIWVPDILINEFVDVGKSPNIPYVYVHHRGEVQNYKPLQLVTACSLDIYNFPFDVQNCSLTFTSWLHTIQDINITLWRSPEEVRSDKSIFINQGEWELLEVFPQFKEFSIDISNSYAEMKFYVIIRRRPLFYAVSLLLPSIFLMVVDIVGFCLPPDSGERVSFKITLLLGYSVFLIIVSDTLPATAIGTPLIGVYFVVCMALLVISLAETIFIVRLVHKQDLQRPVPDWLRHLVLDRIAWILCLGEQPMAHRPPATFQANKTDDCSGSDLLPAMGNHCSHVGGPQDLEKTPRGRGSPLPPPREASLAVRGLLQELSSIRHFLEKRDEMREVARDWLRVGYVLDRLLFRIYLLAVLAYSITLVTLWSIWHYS
Method: as §1, §2

[5] = target: α7/5HT3A chimera receptor (hα7/m5HT3A), used for α7-nAChRs (UniProt P23979+P36544, M226I/T225I); assay: Intact cell competitive radioligand binding assay ([3H]-(±)-epibatidine, SPA), LGIC-CNiFERs
5HT3A receptors [6] = target: T3, 5HT3A receptors; assay: Intact cell competitive radioligand binding assay ([3H]-granisetron, SPA), LGIC-CNiFERs; conditions: 10 μM, more than 50% radioligand displacement
[7] = functional screening and characterization

Structure (SMILES) | Discrimination index / cognition enhancement, ORT time delay vs control group [1] | Initial screening for binding to α4β2-nAChRs (α4β2-nAChRs [2]) | Functional properties at α4β2-nAChRs (agonist / antagonist, type) (α4β2-nAChRs [3]) | Kd (α4β2-nAChRs [3]; read-out: Antagonist KA ± SD, α4β2) [µM] | Functional properties at α7-nAChRs (agonist / antagonist) (α7-nAChRs; [7]) | EC50 (α7-nAChRs) [µM] | Kd (5HT3A receptors [4]; competitive antagonist (^C), >10 = did not pass initial screen, vs 5-HT, read-out: Antagonist KA ± SD, 5HT3A) [µM] | Functional properties at 5HT3A receptors (agonist / antagonist, type) (5HT3A receptors [4]; [7]) | EC50 (5HT3A receptors [4]) [µM] | Initial screening for binding to α7-nAChRs ([5]; 10 μM, more than 50% radioligand displacement) | Initial screening for binding to 5HT3A receptors (5HT3A receptors [6]) | Kd (α4β2-nAChRs [3]; Antagonist KA ± SD, α4β2, competitive antagonist (^C), >10 = did not pass initial screen, vs (±)-epibatidine) [µM] | Kd (α4β2-nAChRs [3]; read-out: Antagonist KA ± SD, α4β2, non-competitive) [µM] | Fold increase of Kd (α7-nAChRs) compared to IND8 [5] [fold] | Kd ([5]; read-out: Kd ± SD, α7-nAChRs, >10 = did not pass initial screen at 10 μM) [µM]
CCN1C[C@]2(COC(=O)c3ccccc3N3C(=O)C[C@H](C)C3=O)CC[C@H](OC)[C@@]34[C@@H]5C[C@H]6[C@H](OC)[C@@H]5[C@](O)(C[C@@H]6OC)[C@@](O)([C@@H](OC)[C@H]23)[C@@H]14 [MLA, methyllycaconitine, reference compound] | does not enhance episodic memory; also recorded: did not have cognitive enhancement effect |  |  |  |  |  |  |  |  |  |  |  |  |  | 
c1ccc(-c2ccc(-c3cn(CCN4CCCCC4)nn3)cc2)cc1 [PPRD7, 1-(2-(4-(Biphenyl-4-yl)-1,2,3-triazol-1-yl)ethyl)piperidine] |  | cannot bind to all tested LGIC receptors | did not pass the functional screening | > 10 | did not pass the functional screening | > 10 | > 10 | did not pass the functional screening | > 10 | cannot bind to all tested LGIC receptors | cannot bind to all tested LGIC receptors |  |  |  | 
Cn1ccc2cc(-c3cn(C4CN5CCC4CC5)nn3)ccc21 (stereo not shown) [QND9, 3-(4-(1-Methyl-indol-5-yl)-1,2,3-triazol-1-yl)quinuclidine] |  | associate well with α4β2-nAChRs | mix-competitive antagonist |  |  | 1 ± 0.04 |  |  | 1.38 ± 0.52 |  |  | 5.2 ± 1.2 | 6.5 ± 0.2 | 15 | 1.88
